The values below come from patent US4552882A, “7-(1-Pyrrolyl) derivatives of 1-ethyl-1,4-dihydro-4-oxoquinoline-3-carboxylic acids and 1-ethyl-1,4-dihydro-4-oxo-1,8-naphthyridine-3-carboxylic acids and their use as antimicrobial agents” (Provesan, SA, priority 1983, dated 1985).

≈ marks a conversion by molar mass, not a printed value. A value given as a limit tells only on which side of the number the result lay.

Assay [1] relates to Proteus mirabilis ATCC 4675. Nature of the assay: MIC in vitro. The settings on record: ATCC4675, Dextrose agar, 37° C., 20 hours. It is filed as cell-based. The protocol:
(G. L. Daquet and Y. A. Chabbect, Techniques en bacteriologie (Bacteriological techniques), vol. 3, Flammarion Medecine Sciences, Paris, 1972 and W. B. Hugo and A. D. Rusell, Pharmaceutical Microbiology, Blackwell Scientific Publications, London, (1977)). Antibiotic medium no. 1 (seed agar) (Oxoid CM 327) Tryptone-soya broth (Oxoid CM 129) Ringer's physiological solution 1/4 (oxoid BR 52) Dextrose agar (BBL-11165) 0.1 N NaOH "Proteus mirabilis" ATCC 4675 Each of the microorganisms is seeded by streaking in tubes of Antibiotic medium No. 1 (seed agar), which are then incubated at 37° C. for 20 hours. Using a culture loop, the cultures are then seeded in tryptone-soyabroth and incubated at 37° C. for 20 hours. The culture obtained is diluted to 1/4 with Ringer's physiological solution, so as to obtain a standardized suspension of 10^7 -10^9 cfu/ml for each organism. Starting from a solution of 1,000 μg/ml in 0.1 N NaOH, each product is diluted in Dextrose agar (previously melted and maintained at 50° C.), with successive dilutions so as to obtain the following concentrations: 64--32--16--8--4--2--1--0.5--0.25--0.125 μg of derivative/ml medium. For each product, the solution of each concentration is subsequently distributed into Petri dishes 10 cm in diameter, with 10 ml of medium per dish and the same number of dishes as microorganisms to be tested. As soon as the medium has cooled, the dishes are seeded with the inoculations using 0.4 ml of inoculation per dish. They are spread with a Driglasky loop and the supernatant is removed. The seeded dishes are incubated at 37° C. for 20 hours.

The subject of assay [2] is gram-negative microorganisms. Nature of the assay: in vitro antimicrobial activity compared to pipemidic acid. It is filed as cell-based. The protocol:
(G. L. Daquet and Y. A. Chabbect, Techniques en bacteriologie (Bacteriological techniques), vol. 3, Flammarion Medecine Sciences, Paris, 1972 and W. B. Hugo and A. D. Rusell, Pharmaceutical Microbiology, Blackwell Scientific Publications, London, (1977)).
Antibiotic medium no. 1 (seed agar) (Oxoid CM 327)
Tryptone-soya broth (Oxoid CM 129)
Ringer's physiological solution 1/4 (oxoid BR 52) Dextrose agar (BBL-11165) 0.1 N NaOH
Each of the microorganisms is seeded by streaking in tubes of Antibiotic medium No. 1 (seed agar), which are then incubated at 37° C. for 20 hours. Using a culture loop, the cultures are then seeded in tryptone-soyabroth and incubated at 37° C. for 20 hours. The culture obtained is diluted to 1/4 with Ringer's physiological solution, so as to obtain a standardized suspension of 10^7 -10^9 cfu/ml for each organism.
Starting from a solution of 1,000 μg/ml in 0.1 N NaOH, each product is diluted in Dextrose agar (previously melted and maintained at 50° C.), with successive dilutions so as to obtain the following concentrations: 64--32--16--8--4--2--1--0.5--0.25--0.125 μg of derivative/ml medium.
For each product, the solution of each concentration is subsequently distributed into Petri dishes 10 cm in diameter, with 10 ml of medium per dish and the same number of dishes as microorganisms to be tested.
As soon as the medium has cooled, the dishes are seeded with the inoculations using 0.4 ml of inoculation per dish. They are spread with a Driglasky loop and the supernatant is removed. The seeded dishes are incubated at 37° C. for 20 hours.

In assay [1], `CCn1cc(C(=O)O)c(=O)c2ccc(-n3cccc3)cc21` [Example 1, 7-(1-pyrrolyl)-1-ethyl-1,4-dihydro-4-oxo-3-quinolinecarboxylic acid] returned an MIC of 16 mg/L (≈ 56.7 µM). As for `CCn1cc(C(=O)O)c(=O)c2ccc(-n3cccc3)nc21` [Example 3, 1-ethyl-1,4-dihydro-4-oxo-7-(1-pyrrolyl)-1,8-naphthyridine-3-carboxylic acid], the “activity compared to pipemidic acid” value in assay [2] is recorded as “activity of the same order as that of pipemidic acid”. In addition, the minimal inhibitory concentration (MIC) in assay [1] is above 64 mg/L. The compound `CCn1cc(C(=O)O)c(=O)c2cc(F)c(-n3cccc3)nc21` [Example 4, 1-ethyl-1,4-dihydro-4-oxo-6-fluoro-7-(1-pyrrolyl)-1,8-naphthyridine-3-carboxylic acid] yielded an MIC in assay [1] of 8 mg/L (≈ 26.6 µM). On the same count and under the same terms, the same measure for `CCn1cc(C(=O)O)c(=O)c2cc(F)c(-n3cccc3)cc21` [Example 2, 6-fluoro-7-(1-pyrrolyl)-1-ethyl-1,4-dihydro-4-oxo-3-quinolinecarboxylic acid]: 4 mg/L (≈ 13.3 µM). In the case of `CCn1cc(C(=O)O)c(=O)c2cnc(N3CCNCC3)nc21` [Pipemidic acid, reference compound], inhibition of growth in assay [1] (MIC) required 16 mg/L (≈ 52.7 µM).

As usually defined, the MIC is the lowest concentration that inhibits growth of the organism.
